In patent US12396461B2, “Functional peptides having antimicrobial activity against phytopathogenic microorganisms” (TOYOTA JIDOSHA KABUSHIKI KAISHA, priority 2019, dated 2025):
Where “and” joins values, the source holds several entries; their conditions need not be identical. Equal values may be shown once. Entries after “also recorded” stand apart in the source; their conditions may differ. Read-outs that look alike come from different tables or passages of the source. Where no end group is shown, it is not given here.

Assays:
[1] = system: Colletotrichum destructivum; assay: Colletotrichum destructivum leaf inoculation test (Chinese cabbage leaf); format: in vivo; conditions: 25° C. for 4 days; for lesion of Colletotrichum destructivum on Chinese cabbage leaf, result in words: FIG. 3; for Leaf inoculation test Chinese cabbage/Colletotrichum destructivum: lesions by visual inspection, symbols ◯/Δ/X not defined
Method: In the present example, a suspension comprising Colletotrichum destructivum and a peptide to be tested was dropped on a plant leaf, and lesions were then observed by visual inspection to evaluate the antimicrobial activity of the tested peptide. First, the pores of Colletotrichum destructivum were suspended in water to result in a spore concentration of 5×10^5 spores/ml, so as to prepare a water suspension of spores. Subsequently, a peptide to be tested (TsORF6-1) was added to the water suspension of spores, so that the final concentration of the peptide to be tested became 0 μM, 1 μM, 10 μM or 100 μM. Thereafter, 10 μl each of the water suspension of spores containing the peptide to be tested was dropped on the front side and the back side of the leaf of Chinese cabbage (variety name: “Kigokoro 85”). In this condition, incubation was carried out at 25° C. for 4 days. Thereafter, the front and back sides of the leaf were observed by visual inspection.

Ralstonia solanacearum = conditions: 100 μM
Pyricularia oryzae = format: cell-based; set-up: key to Plate antimicrobial activity test Pyricularia oryzae, level: a case where hyphae extended to the entire well and no antimicrobial activity was found is defined as “level 0,”; a case where hyphae extended to less than a half of the well and thus the peptide inhibited the growth of the hyphae is defined as “level 1,”; a case where ungerminated spores were present and the peptide partially inhibited the germination is defined as “level 2,”; a case where all spores were ungerminated and the peptide completely inhibited the germination is defined as “level 3.”; conditions: for Plate antimicrobial activity test Pyricularia oryzae, level: 25° C. for 1 day or 2 days, microscopic observation
[2] = system: Erwinia carotovora subsp. carotovora; conditions: 100 μM
[3] = system: Colletotrichum destructivum; format: cell-based; set-up: key to Plate antimicrobial activity test Colletotrichum destructivum, level: a case where hyphae extended to the entire well and no antimicrobial activity was found is defined as “level 0,”; a case where hyphae extended to less than a half of the well and thus the peptide inhibited the growth of the hyphae is defined as “level 1,”; a case where ungerminated spores were present and the peptide partially inhibited the germination is defined as “level 2,”; a case where all spores were ungerminated and the peptide completely inhibited the germination is defined as “level 3.”; conditions: for Plate antimicrobial activity test Colletotrichum destructivum, level: 25° C. for 1 day or 2 days, microscopic observation
Fusarium oxysporum = format: cell-based; set-up: key to Plate antimicrobial activity test Fusarium oxysporum, level: a case where hyphae extended to the entire well and no antimicrobial activity was found is defined as “level 0,”; a case where hyphae extended to less than a half of the well and thus the peptide inhibited the growth of the hyphae is defined as “level 1,”; a case where ungerminated spores were present and the peptide partially inhibited the germination is defined as “level 2,”; a case where all spores were ungerminated and the peptide completely inhibited the germination is defined as “level 3.”
[4] = system: Colletotrichum orbiculare; format: cell-based; set-up: key to Plate antimicrobial activity test Colletotrichum orbiculare, level: a case where hyphae extended to the entire well and no antimicrobial activity was found is defined as “level 0,”; a case where hyphae extended to less than a half of the well and thus the peptide inhibited the growth of the hyphae is defined as “level 1,”; a case where ungerminated spores were present and the peptide partially inhibited the germination is defined as “level 2,”; a case where all spores were ungerminated and the peptide completely inhibited the germination is defined as “level 3.”; conditions: for Plate antimicrobial activity test Colletotrichum orbiculare, level: 25° C. for 1 day or 2 days, microscopic observation
Botrytis cinerea [5] = format: cell-based; set-up: key to Plate antimicrobial activity test Botrytis cinerea, level: a case where hyphae extended to the entire well and no antimicrobial activity was found is defined as “level 0,”; a case where hyphae extended to less than a half of the well and thus the peptide inhibited the growth of the hyphae is defined as “level 1,”; a case where ungerminated spores were present and the peptide partially inhibited the germination is defined as “level 2,”; a case where all spores were ungerminated and the peptide completely inhibited the germination is defined as “level 3.”; conditions: for Plate antimicrobial activity test Botrytis cinerea, level: 25° C. for 1 day or 2 days, microscopic observation
Botrytis cinerea [6] = assay: Botrytis cinerea leaf inoculation test (tomato leaf); format: in vivo; conditions: peptide 100 μM; tomato leaf, 25° C. for 2 days, lesions by visual inspection; symbols ◯/Δ/X not defined
Method: In the present example, a suspension comprising Botrytis cinerea and a peptide to be tested was dropped on a plant leaf, and lesions were then observed by visual inspection to evaluate the antimicrobial activity of the tested peptide. First, the pores of Botrytis cinerea were suspended in a potato dextrose broth (PDB) to result in a spore concentration of 5×10^5 spores/ml, so as to prepare a PDB suspension spore solution. Subsequently, a peptide to be tested (TsORF6-1) was added to the PDB suspension spore solution, so that the final concentration of the peptide to be tested became 0 μM, 1 μM, 10 μM or 100 μM. Thereafter, 10 μl each of the PDB suspension spore solution containing the peptide to be tested was dropped on the front side and the back side of the leaf of tomato (variety name: “Momotaro Fight”). In this condition, incubation was carried out at 25° C. for 2 days. Thereafter, the front and back sides of the leaf were observed by visual inspection.

[7] = system: Xanthomonas oryzae pv. oryzae
[8] = system: Pseudomonas syringae pv. tomato
[9] = (FIG. 1, Table 3), concentration not given

MKVMIVVKTKVKNKKVAKMMVK [TsORF6-1]
lesion of Colletotrichum destructivum on Chinese cabbage leaf, result in words ([1]; water suspension of spores containing 10 μl peptide): a lesion of Colletotrichum destructivum was not observed
lesion of Colletotrichum destructivum on Chinese cabbage leaf, result in words ([1]; water suspension of spores containing 100 μl peptide): a lesion of Colletotrichum destructivum was not observed
Leaf inoculation test Chinese cabbage/Colletotrichum destructivum ([1]; peptide 10 μM): ◯
Leaf inoculation test Chinese cabbage/Colletotrichum destructivum ([1]; peptide 100 μM): ◯
Inhibitory rate Ralstonia solanacearum (Ralstonia solanacearum; calculated from OD600 versus water added): −5.2%
OD600 Ralstonia solanacearum (Ralstonia solanacearum; cultured at 28° C. a whole day and night): 2.7
germination of Pyricularia oryzae, result in words (Pyricularia oryzae; [9]): completely inhibited in terms of germination; also recorded: could inhibit germination
Plate antimicrobial activity test Pyricularia oryzae, level (Pyricularia oryzae; peptide 1 μM): 0
Plate antimicrobial activity test Pyricularia oryzae, level (Pyricularia oryzae; peptide 10 μM): 0
Plate antimicrobial activity test Pyricularia oryzae, level (Pyricularia oryzae; peptide 100 μM): 2
Inhibitory rate Erwinia carotovora subsp. carotovora [2]: −14.9%
OD600 Erwinia carotovora subsp. carotovora [2]: 2.2
germination of Colletotrichum destructivum, result in words [3, 9]: completely inhibited in terms of germination; also recorded: could inhibit germination
Plate antimicrobial activity test Colletotrichum destructivum, level ([3]; peptide 1 μM): 0
Plate antimicrobial activity test Colletotrichum destructivum, level ([3]; peptide 10 μM): 0
Plate antimicrobial activity test Colletotrichum destructivum, level ([3]; peptide 100 μM): 3
Plate antimicrobial activity test Fusarium oxysporum, level (Fusarium oxysporum): 2 and 0
germination of Fusarium oxysporum, result in words (Fusarium oxysporum): completely inhibited in terms of germination; also recorded: could inhibit germination
germination of Colletotrichum orbiculare, result in words [4, 9]: completely inhibited in terms of germination; also recorded: could inhibit germination
Plate antimicrobial activity test Colletotrichum orbiculare, level ([4]; peptide 1 μM): 0
Plate antimicrobial activity test Colletotrichum orbiculare, level ([4]; peptide 10 μM): 0
Plate antimicrobial activity test Colletotrichum orbiculare, level ([4]; peptide 100 μM): 2
germination of Botrytis cinerea, result in words (Botrytis cinerea [5]; [9]): completely inhibited in terms of germination; also recorded: could inhibit germination
Plate antimicrobial activity test Botrytis cinerea, level (Botrytis cinerea [5]; peptide 1 μM): 0
Plate antimicrobial activity test Botrytis cinerea, level (Botrytis cinerea [5]; peptide 10 μM): 0
Plate antimicrobial activity test Botrytis cinerea, level (Botrytis cinerea [5]; peptide 100 μM): 3
Leaf inoculation test Tomato/Botrytis cinerea (Botrytis cinerea [6]): ◯
Inhibitory rate Xanthomonas oryzae pv. oryzae ([7]; 100 μM, calculated from OD600 versus water added): 47.6%
OD600 Xanthomonas oryzae pv. oryzae ([7]; 100 μM, cultured at 28° C. a whole day and night): 1.1
growth of Xanthomonas oryzae pv. oryzae, result in words ([7]; Table 4): could inhibit the growth
growth of Pseudomonas syringae pv. tomato, result in words [8]: could inhibit the growth
Inhibitory rate Pseudomonas syringae pv. tomato ([8]; 100 μM): 90.6%
OD600 Pseudomonas syringae pv. tomato ([8]; 100 μM): 0.2
